One test deals with cancer patients. Briefly: Test Example 4: correlation between vaccination with individual peptides (or peptide sets) and OS, Cox proportional hazards regression. Particulars: for HR: Cox proportional hazards regression, OS; for Correlation between immune responses and OS: Negative (mOS) / Correlation between immune responses and OS: Positive (mOS): Table 20, <64% neutrophil and ≥26% lymphocyte; for Correlation between immune responses and OS: Negative (mOS): vaccinated patients with negative IgG response; for Correlation between immune responses and OS: Positive (mOS): vaccinated patients with positive IgG response. It is filed as in vivo, human. Summed up: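 Univariate and multivariate Cox proportional hazards regression of each of 31 vaccine peptides against OS (enrollment to death or last contact), giving HR with 95% CI; also run separately in 2,085 advanced (stage IV+recurrence) and 503 stage I-III patients. Two-sided p<0.05 considered significant.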

Test [1] relates to anti-peptide IgG in plasma. The test is described as follows: Test Example 4: peptide-specific IgG titer pre and post vaccination, bead-based multiplexed Luminex assay. Type of test: in vivo, human. Particulars: for Pre-vaccination IgG Negative (number of patients) / Pre-vaccination IgG Positive (number of patients): cut off 10 FIU; for Post vaccination IgG: number of (positive) patients among vaccinated: positive IgG response; for Pre-vaccination IgG Negative patients: number of 2,588 patients below 10 FIU; for Pre-vaccination IgG Positive patients: number of 2,588 patients with ≥10 FIU; for Post vaccination IgG: (positive) patients: number of vaccinated patients with positive IgG response; for Correlation between immune responses and OS: Negative (mOS): patients with negative post-vaccination IgG response to the peptide; for Correlation between immune responses and OS: Positive (mOS): patients with positive post-vaccination IgG response to the peptide. An outline of the steps:
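Plasma taken before vaccination and at the end of the first and second cycles; incubated with peptide-coupled beads 2 hours at 25° C., then biotinylated anti-human IgG (gamma chain-specific) and streptavidin-PE. Bead FIU read by Luminex; positivity cutoff 10 FIU in 100-fold diluted samples.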

The mark [2] stands for this setting: Table 18, all 2,588 cases, vaccinated vs non-vaccinated.
Setting [3] is: Table 18, all 2,588 cases, median OS of patients under PPV containing the peptide.
[4] abbreviates: Table 18, all 2,588 cases, median OS of patients under PPV not containing the peptide.
Where [5] appears, read: Table 19, 2,085 advanced cancer patients (stage IV+recurrence).
[6] abbreviates: Table 19, 2,085 advanced cancer patients (stage IV+recurrence), PPV containing the peptide.
[7] abbreviates: Table 19, 2,085 advanced cancer patients (stage IV+recurrence), PPV not containing the peptide.
The mark [8] stands for this setting: Table 21, patients showing both <64% neutrophil and ≥26% lymphocyte.
Where [9] appears, read: Table 21, patients showing both <64% neutrophil and ≥26% lymphocyte, PPV containing the peptide.
The mark [10] stands for this setting: Table 21, patients showing both <64% neutrophil and ≥26% lymphocyte, PPV not containing the peptide.
The mark [11] stands for this setting: Table 20, patients showing both <64% neutrophil and ≥26% lymphocyte.
Setting [12] is: patients showing detectable levels.
Setting [13] is: patients showing positive responses.

For “VIQNLERGYR (listed as Homo sapiens) [Lck-449]”, the HR in the test with cancer patients (setting [2]) is 0.9; in the test with cancer patients (setting [5]), 0.8; in the test on cancer patients (setting [8]), 0.8. Besides, the “Vaccinate cases (mOS)” value in the test with cancer patients (setting [3]) was 127(13.7) M; in the test with cancer patients (setting [6]), 102(13.3) M; in the test on cancer patients (setting [9]), 57(18.1) M. Moreover, the figures for the “Non-vaccinate cases (mOS)” value with cancer patients (setting [4]), with cancer patients (setting [7]) and in the test on cancer patients (setting [10]) were 1,087(10.8) M, 867(9.5) M and 450(17.5) M, respectively. Also, the Correlation between immune responses and OS: Negative (mOS) in the test with cancer patients turned out to be 10 months; in test [1], 6.2 months. For the same sequence, the Correlation between immune responses and OS: Positive (mOS) in the test on cancer patients amounted to 27.1 months; in test [1] it was 19.5 months. The “Post vaccination IgG Median (FIU)” value is on record as 18,734 FIU in test [1] (setting [11]) and 18,919 FIU in test [1] (setting [13]). For the same sequence, the “Pre-vaccination IgG Median (FIU)” value in test [1] (setting [11]) and in test [1] (setting [12]) was 23 FIU throughout. In addition, the “Pre-vaccination IgG Negative (number of patients)” value in test [1] (setting [11]) worked out at 475. In test [1] (setting [11]), the “Pre-vaccination IgG Positive (number of patients)” value was 591. Moreover, the “Post vaccination IgG: number of (positive) patients among vaccinated” value (shortened to “Post vaccination IgG: number”) in test [1] (setting [11]) is listed as 57(38). In addition, the “Pre-vaccination IgG Negative patients” value in test [1] is 1,182. Moreover, the “Pre-vaccination IgG Positive patients” value in test [1] is 1,406. In test [1], the “Post vaccination IgG: (positive) patients” value was 127(67).
For “VYDYNCHVDL (listed as Homo sapiens) [SART3-109]”, the HR in the test with cancer patients (setting [2]), in the test with cancer patients (setting [5]) and in the test with cancer patients (setting [8]) was 1.0 in each case. For the same sequence, the “Vaccinate cases (mOS)” value is 474(12.3) M in the test with cancer patients (setting [3]), 376(10.6) M in the test with cancer patients (setting [6]) and 192(19.8) M in the test on cancer patients (setting [9]). For the same sequence, the figures for the “Non-vaccinate cases (mOS)” value with cancer patients (setting [4]), with cancer patients (setting [7]) and in the test with cancer patients (setting [10]) were 1,948(11.5) M, 1566(10.2) M and 796(18.0) M, respectively. Further, the results for the Correlation between immune responses and OS: Negative (mOS) (in the test on cancer patients; in test [1]) were 17.1 months and 10.3 months, respectively. Also, the Correlation between immune responses and OS: Positive (mOS) with cancer patients was found to be 24.1 months; in test [1], 19.0 months. Moreover, the “Post vaccination IgG Median (FIU)” value in test [1] (setting [11]) was 9,770 FIU; in test [1] (setting [13]), 7,875 FIU. Moreover, the “Pre-vaccination IgG Median (FIU)” value in test [1] (setting [11]) came to 30 FIU; in test [1] (setting [12]) it was 31 FIU. Moreover, the “Pre-vaccination IgG Negative (number of patients)” value in test [1] (setting [11]) is recorded as 572. Besides, the “Pre-vaccination IgG Positive (number of patients)” value in test [1] (setting [11]) was 494. Further, in test [1] (setting [11]), the “Post vaccination IgG: number” value is recorded as 192(116). Further, the “Pre-vaccination IgG Negative patients” value in test [1] is recorded as 1,382. The “Pre-vaccination IgG Positive patients” value in test [1] is given as 1,206. Moreover, in test [1], the “Post vaccination IgG: (positive) patients” value is 474(223).
On to “WLEYYNLER (listed as Homo sapiens) [SART3-511]”, for which the HR is 1.0 in the test with cancer patients (setting [2]), 1.0 in the test with cancer patients (setting [5]) and 0.9 in the test on cancer patients (setting [8]). The “Vaccinate cases (mOS)” value with cancer patients (setting [3]) is 439(11.0) M; in the test with cancer patients (setting [6]), 346(9.9) M; in the test on cancer patients (setting [9]), 179(19.0) M. Besides, the “Non-vaccinate cases (mOS)” value in the test on cancer patients (setting [4]) is 775(11.2) M; in the test on cancer patients (setting [7]) it was 623(10.0) M; with cancer patients (setting [10]) it was 328(17.5) M. For the same sequence, the Correlation between immune responses and OS: Negative (mOS) in the test on cancer patients was found to be 17.1 months; in test [1], 10.8 months. In addition, the Correlation between immune responses and OS: Positive (mOS) in the test on cancer patients is 29.2 months; in test [1], 22.6 months. In addition, the “Post vaccination IgG Median (FIU)” value in test [1] (setting [11]) was 1,095 FIU; in test [1] (setting [13]) it was 921 FIU. In addition, the “Pre-vaccination IgG Median (FIU)” value in test [1] (setting [11]) stood at 38 FIU; in test [1] (setting [12]) it was 41 FIU. Moreover, the “Pre-vaccination IgG Negative (number of patients)” value in test [1] (setting [11]) turned out to be 264. Further, the “Pre-vaccination IgG Positive (number of patients)” value in test [1] (setting [11]) is recorded as 802. Also, the “Post vaccination IgG: number” value in test [1] (setting [11]) is reported as 179(82). For the same sequence, the “Pre-vaccination IgG Negative patients” value in test [1] is 621. The “Pre-vaccination IgG Positive patients” value in test [1] is given as 1,967. Further, in test [1], the “Post vaccination IgG: (positive) patients” value was 439(145).

The record behind these values is US20220233661A1, “METHOD OF DETERMINING ELIGIBILITY OF CANCER PATIENT FOR PEPTIDE VACCINE THERAPY” (priority 2019, published 2022).
